Laboratory results reported in article PMC3230330 (Bioorganic & medicinal chemistry, 2011).
Like-named read-outs stand apart in the source and are kept apart here.

Legend:
[1] = target: T1, BoNT/A LC (Clostridium botulinum, UniProt P0DPI0); assay: biochemical; assay type: biochemical
[2] = target: Anthrax LF (Bacillus anthracis, UniProt P15917); assay: biochemical
[3] = target: T1, BoNT/A LC; assay type: biochemical
[4] = target: T1, BoNT/A LC; assay type: biochemical; remark: listed apart in the source
[5] = target: T1, BoNT/A LC; settings: cited from earlier work
[6] = target: human MMP-1 (Homo sapiens, UniProt P03956); assay type: biochemical
human MMP-1, sequence (P03956 100-469): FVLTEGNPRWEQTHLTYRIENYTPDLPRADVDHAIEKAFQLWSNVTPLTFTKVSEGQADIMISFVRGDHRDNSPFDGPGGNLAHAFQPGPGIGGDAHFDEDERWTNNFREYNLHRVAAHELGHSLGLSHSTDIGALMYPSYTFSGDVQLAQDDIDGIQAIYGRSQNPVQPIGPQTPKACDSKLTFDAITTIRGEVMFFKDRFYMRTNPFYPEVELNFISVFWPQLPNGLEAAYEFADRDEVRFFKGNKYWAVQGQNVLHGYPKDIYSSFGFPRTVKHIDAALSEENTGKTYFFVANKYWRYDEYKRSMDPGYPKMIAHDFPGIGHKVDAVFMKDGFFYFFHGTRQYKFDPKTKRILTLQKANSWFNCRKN

[7] = target: human MMP-9 (Homo sapiens, UniProt P14780); assay type: biochemical
human MMP-9, sequence (P14780 94-707): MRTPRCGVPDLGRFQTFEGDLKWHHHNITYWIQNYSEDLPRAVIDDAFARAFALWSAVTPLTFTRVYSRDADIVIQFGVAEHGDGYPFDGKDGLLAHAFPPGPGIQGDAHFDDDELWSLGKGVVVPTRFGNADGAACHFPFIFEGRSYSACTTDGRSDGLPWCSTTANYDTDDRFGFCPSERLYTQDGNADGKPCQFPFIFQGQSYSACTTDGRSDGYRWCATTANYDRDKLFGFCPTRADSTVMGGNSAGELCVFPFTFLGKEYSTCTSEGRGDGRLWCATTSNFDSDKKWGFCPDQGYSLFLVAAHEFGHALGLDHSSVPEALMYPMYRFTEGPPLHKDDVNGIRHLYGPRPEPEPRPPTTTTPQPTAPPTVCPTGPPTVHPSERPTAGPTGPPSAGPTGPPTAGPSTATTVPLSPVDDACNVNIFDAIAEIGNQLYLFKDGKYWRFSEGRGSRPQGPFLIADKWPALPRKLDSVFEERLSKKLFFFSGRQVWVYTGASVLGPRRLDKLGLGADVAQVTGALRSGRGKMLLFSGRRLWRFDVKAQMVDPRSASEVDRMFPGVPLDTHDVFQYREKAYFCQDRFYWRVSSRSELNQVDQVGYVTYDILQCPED

[8] = system: BoNT/B LC; settings: cited from earlier work
[9] = target: human MMP-2 (Homo sapiens, UniProt P08253); assay type: biochemical
human MMP-2, sequence (P08253 110-660): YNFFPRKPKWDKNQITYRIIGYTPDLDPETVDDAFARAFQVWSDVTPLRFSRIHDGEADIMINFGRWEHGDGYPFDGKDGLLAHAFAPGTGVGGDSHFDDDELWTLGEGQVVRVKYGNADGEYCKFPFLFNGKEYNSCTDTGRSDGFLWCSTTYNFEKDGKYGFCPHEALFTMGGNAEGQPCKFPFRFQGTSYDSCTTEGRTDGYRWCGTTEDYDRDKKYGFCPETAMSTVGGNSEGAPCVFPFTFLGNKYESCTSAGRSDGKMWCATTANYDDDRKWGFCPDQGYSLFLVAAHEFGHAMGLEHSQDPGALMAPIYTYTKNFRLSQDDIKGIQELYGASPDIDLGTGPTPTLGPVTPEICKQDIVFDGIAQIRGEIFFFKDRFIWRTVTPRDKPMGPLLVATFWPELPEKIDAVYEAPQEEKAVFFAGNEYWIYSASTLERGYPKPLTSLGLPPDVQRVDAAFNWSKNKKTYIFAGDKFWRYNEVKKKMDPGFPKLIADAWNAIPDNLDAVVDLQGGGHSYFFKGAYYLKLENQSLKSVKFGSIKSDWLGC

T1 sequence (P0DPI0 2-448 limits assumed): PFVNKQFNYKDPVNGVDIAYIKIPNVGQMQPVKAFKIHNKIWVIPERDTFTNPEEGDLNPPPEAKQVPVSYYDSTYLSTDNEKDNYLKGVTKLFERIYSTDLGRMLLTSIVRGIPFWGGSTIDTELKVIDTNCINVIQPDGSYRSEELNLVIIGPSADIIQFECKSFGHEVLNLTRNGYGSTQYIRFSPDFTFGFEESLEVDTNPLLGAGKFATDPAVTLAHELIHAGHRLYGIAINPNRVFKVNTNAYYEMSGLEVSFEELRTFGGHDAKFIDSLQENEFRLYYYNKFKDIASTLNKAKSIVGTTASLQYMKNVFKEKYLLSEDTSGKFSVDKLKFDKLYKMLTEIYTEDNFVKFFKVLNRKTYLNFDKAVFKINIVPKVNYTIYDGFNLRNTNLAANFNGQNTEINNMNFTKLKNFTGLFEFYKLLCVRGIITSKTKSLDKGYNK
Anthrax LF, sequence (P15917 34-809 limits assumed): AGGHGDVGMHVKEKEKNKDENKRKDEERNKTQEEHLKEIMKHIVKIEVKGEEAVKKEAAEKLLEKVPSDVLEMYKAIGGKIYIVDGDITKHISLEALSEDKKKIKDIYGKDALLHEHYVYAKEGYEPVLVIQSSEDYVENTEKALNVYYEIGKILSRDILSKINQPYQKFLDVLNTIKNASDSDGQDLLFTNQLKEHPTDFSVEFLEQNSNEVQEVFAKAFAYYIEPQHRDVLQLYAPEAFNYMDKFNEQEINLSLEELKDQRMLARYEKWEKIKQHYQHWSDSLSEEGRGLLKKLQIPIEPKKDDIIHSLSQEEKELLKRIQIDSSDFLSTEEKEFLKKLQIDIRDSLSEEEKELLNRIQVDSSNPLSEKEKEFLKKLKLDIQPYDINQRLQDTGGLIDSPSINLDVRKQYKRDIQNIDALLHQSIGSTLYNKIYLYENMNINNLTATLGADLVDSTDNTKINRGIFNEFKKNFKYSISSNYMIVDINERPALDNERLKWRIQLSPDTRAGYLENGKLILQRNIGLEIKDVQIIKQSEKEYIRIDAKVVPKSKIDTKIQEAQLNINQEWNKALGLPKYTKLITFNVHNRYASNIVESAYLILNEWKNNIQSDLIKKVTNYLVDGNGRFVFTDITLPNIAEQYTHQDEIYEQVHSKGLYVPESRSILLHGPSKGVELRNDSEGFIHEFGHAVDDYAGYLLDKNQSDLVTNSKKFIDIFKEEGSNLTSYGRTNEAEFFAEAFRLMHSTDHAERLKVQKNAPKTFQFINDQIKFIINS

Question: For “2-(1-Cyano-2-phenylvinyl)benzimidazole [Compound 8a]”, which “BoNT/A LC inhibitory potency (in words)” value [1] is on record?
Answer: eliminated inhibitory potency

Question: With “2-[1-Cyano-2-(2,4-dichloropyrimidin-3-yl)vinyl]-benzimidazole [Compound 10b]” as the molecule, how does the IC50 ([2]; read-out: Anthrax LF IC50) read?
Answer: > 100 µM

Question: Which results are given for COc1ccc(/C=C(\C#N)c2nc3ccccc3[nH]2)cc1I [Compound 4]?
Answer: manner of BoNT/A LC inhibition [3]: time-dependent; Inactivated by cysteine [4]: inactivated; Inactivated by glutathione [4]: inactivated; Inactivated by zinc chelation [4]: neither are metal chelating agents; kinetics with respect to the substrate [5]: noncompetitive; MMP-1 IC50 [6]: neither compound inhibited; MMP-9 IC50 [7]: neither compound inhibited; BoNT/B LC FRET IC50 [8]: neither 4 nor 5 inhibited; MMP-2 IC50 [9]: neither compound inhibited

Question: What does the source list for N#C/C(=C\c1ccc(-c2cccs2)s1)c1nc2ccccc2[nH]1 [Compound 5, 3-(2,2'-Bithiophen-5-yl)-2-(1H-benzo[d]imidazol-2-yl)acrylonitrile]?
Answer: manner of BoNT/A LC inhibition [3]: time-dependent; Inactivated by cysteine [4]: no significant, non-specific reactivity; Inactivated by glutathione [4]: no significant, non-specific reactivity; Inactivated by zinc chelation [4]: neither are metal chelating agents; kinetics with respect to the substrate [5]: noncompetitive; MMP-1 IC50 [6]: neither compound inhibited; MMP-9 IC50 [7]: neither compound inhibited; BoNT/B LC FRET IC50 [8]: neither 4 nor 5 inhibited; MMP-2 IC50 [9]: neither compound inhibited

Question: With COc1ccc(/C=C(\C#N)c2nc3ccccc3[nH]2)cc1OC [Compound 8f, 2-(1H-Benzo[d]imidazol-2-yl)-3-(3,4-dimethoxyphenyl)acrylonitrile] as the molecule, how does the “BoNT/A LC inhibitory potency (in words)” value [1] read?
Answer: eliminated inhibitory potency

Question: For COc1cc(/C=C(\C#N)c2nc3ccccc3[nH]2)cc(Cl)c1O [Compound 8g, 2-[1-Cyano-2-(3-chloro-5-methoxy-4-hydroxyphenyl)vinyl]benzimidazole], which “BoNT/A LC inhibitory potency (in words)” value [1] is on record?
Answer: significantly decreased or diminished activity

Question: Which IC50 [2] does the source give for COc1cc(C=C(C#N)c2nc3ccccc3[nH]2)cc(Br)c1O [Compound 8h, 2-[1-Cyano-2-(3-bromo-5-methoxy-4-hydroxyphenyl)vinyl]benzimidazole] here?
Answer: > 100 µM

Question: What about the “BoNT/A LC inhibitory potency (in words)” value [1] of the same molecule?
Answer: significantly decreased or diminished activity

Question: And the IC50 [1]?
Answer: 94 µM

Question: With N#C/C(=C\c1ccc(-c2ccccc2)cc1)c1nc2ccccc2[nH]1 [Compound 8i, 2-(1H-Benzo[d]imidazol-2-yl)-3-(biphenyl-4-yl)acrylonitrile] as the molecule, how does the “BoNT/A LC inhibitory potency (in words)” value [1] read?
Answer: significantly lower potency with respect to 4

Question: What does the source list for N#CC(=Cc1ccc(-n2ccnc2)cc1)c1nc2ccccc2[nH]1 [Compound 8j, 3-(4-(1H-Imidazol-1-yl)phenyl)-2-(1H-benzo[d]imidazol-2-yl)acrylonitrile]?
Answer: IC50 [2]: > 100 µM; BoNT/A LC inhibitory potency (in words) [1]: significantly lower potency with respect to 4; IC50 [1]: 73 µM

Question: Which results are given for COc1cc(C=C(C#N)c2nc3ccccc3[nH]2)cc(O)c1OC [Compound 8k, 2-(1H-Benzo[d]imidazol-2-yl)-3-(3-hydroxy-4,5-dimethoxyphenyl)acrylonitrile]?
Answer: IC50 [2]: > 100 µM; BoNT/A LC inhibitory potency (in words) [1]: significantly decreased or diminished activity; IC50 [1]: > 100 µM

Question: Which “BoNT/A LC inhibitory potency (in words)” value [1] does the source give for Cc1ccc(/C=C(\C#N)c2nc3ccccc3[nH]2)s1 [Compound 12a, 2-(1H-Benzo[d]imidazol-2-yl)-3-(5-methylthiophen-2-yl)acrylonitrile] here?
Answer: no BoNT/A LC inhibition

Question: For Cc1cc(/C=C(\C#N)c2nc3ccccc3[nH]2)sc1C [Compound 12b, 2-(1H-Benzo[d]imidazol-2-yl)-3-(4,5-dimethylthiophen-2-yl)acrylonitrile], which “BoNT/A LC inhibitory potency (in words)” value [1] is on record?
Answer: no BoNT/A LC inhibition

Question: For N#C/C(=C\c1cccs1)c1nc2ccccc2[nH]1 [Compound 12c, 2-(1H-Benzo[d]imidazol-2-yl)-3-(thiophen-2-yl)acrylonitrile], which “BoNT/A LC inhibitory potency (in words)” value [1] is on record?
Answer: no BoNT/A LC inhibition

Question: With N#C/C(=C\c1ccc(-c2ccco2)s1)c1nc2ccccc2[nH]1 [Compound 12d, 2-(1H-Benzo[d]imidazol-2-yl)-3-(5-(furan-2-yl)thiophen-2-yl)acrylonitrile] as the molecule, how does the “BoNT/A LC inhibitory potency (in words)” value [1] read?
Answer: approximately two-fold less potent than 5

Question: For N#C/C(=C\c1ccc(-c2cccs2)o1)c1nc2ccccc2[nH]1 [Compound 12e, 2-(1H-Benzo[d]imidazol-2-yl)-3-(5-(thiophen-2-yl)furan-2-yl)acrylonitrile hemiacetate], which “BoNT/A LC inhibitory potency (in words)” value [1] is on record?
Answer: no activity was observed

Question: Which “BoNT/A LC inhibitory potency (in words)” value [1] does the source give for N#C/C(=C\c1ccc(-c2cccs2)s1)c1cc2ccccc2[nH]1 [Compound 14a, 3-(2,2'-Bithiophen-5-yl)-2-(1H-indol-2-yl)acrylonitrile] here?
Answer: eliminated inhibitory potency

Question: For N#C/C(=C\c1ccc(-c2cccs2)s1)c1nc2ccccc2s1 [Compound 14b, 3-(2,2'-Bithiophen-5-yl)-2-(benzo[d]thiazol-2-yl)acrylonitrile], which “BoNT/A LC inhibitory potency (in words)” value [1] is on record?
Answer: eliminated inhibitory potency

Question: For N#C/C(=C\c1ccc(-c2cccs2)s1)c1nc2ccccc2o1 [Compound 14c, 3-(2,2'-Bithiophen-5-yl)-2-(benzo[d]oxazol-2-yl)acrylonitrile], which “BoNT/A LC inhibitory potency (in words)” value [1] is on record?
Answer: eliminated inhibitory potency

Question: Which “BoNT/A LC inhibitory potency (in words)” value [1] does the source give for N#C/C(=C\c1ccc(-c2cccs2)s1)c1ccc2ccccc2n1 [Compound 14d, 3-(2,2'-Bithiophen-5-yl)-2-(quinolin-2-yl)acrylonitrile] here?
Answer: eliminated inhibitory potency

Question: Which “BoNT/A LC inhibitory potency (in words)” value [1] does the source give for Cn1c(/C(C#N)=C/c2ccc(-c3cccs3)s2)[n+](C)c2ccccc21.[I-] [Compound 15, 2-(2-(2,2'-Bithiophen-5-yl)-1-cyanovinyl)-1,3-dimethyl-1H-benzo[d]imidazol-3-ium iodide] here?
Answer: detrimental to potency
